Each structure is given as a SMILES string. Counter-ions that a name gives are not always drawn.

Turning to `CCC1=C(C(N)=O)C(c2ccc([N+](=O)[O-])cc2)C(C(=O)NCCCN2CCC(C#N)(c3ccccc3)CC2)=C(CC)N1` (racemic) (as salt: hydrochloride) (hydrate or solvate) [(±)-102, 5-Carboxamido-3-{N-[(4-cyano-4-phenylpiperidin-1-ly)propyl]carboxamido-2,6-diethyl-1,4-dihydro-4-(4-nitrophenyl)pyridine hydrochloride hydrate], the melting point is 230 °C (dec.).

As for `CCC1=C(C(=O)NCCCN2CCC(c3ccccc3)(c3ccccc3)CC2)C(c2ccc([N+](=O)[O-])cc2)C(C(=O)OCc2ccccc2)=C(C)N1` (stereo not drawn) (as salt: hydrochloride) (hydrate or solvate) [Example 4, 5-Benzyloxycarbonyl-2-ethyl-1,4-dihydro-6-methyl-4-(4-nitrophenyl)-3-(N-(3-(4,4-diphenylpiperidin-1-yl)propyl)carboxamido) pyridine, Hydrochloride Salt, Hydrate], the melting point was 195 to 198 °C (dec.). The figure for `CCC1=C(C(N)=O)C(c2ccc([N+](=O)[O-])cc2)C(C(=O)NCCCN2CCN(c3ccccc3)CC2)=C(CC)N1` (stereo not drawn) (as salt: hydrochloride) (hydrate or solvate) [Example 104, 5-Carboxamido-2,6-diethyl-1,4-dihydro-4-(4-nitrophenyl)-3-{N-[3-(4-phenylpiperazin-1-yl)propyl]}carboxamido-pyridine hydrochloride hydrate] is 160 °C (dec.). `COC(=O)C1=C(C)NC(C)=C(C(=O)NCCCN2CCC(c3ccccc3)CC2)C1c1ccc([N+](=O)[O-])cc1` (racemic) (as salt: hydrochloride) (hydrate or solvate) [(±)-45, (±)-1,4-Dihydro-3-methoxycarbonyl-2,6-dimethyl-4-(4-nitrophenyl)-5-{N-[3-(4-phenylpiperidin-1-yl)propyl]}carboxamidopyridine hydrochloride hemihydrate] registered a melting point of 160 °C. Regarding `CC1=C(C#N)C(c2ccc([N+](=O)[O-])cc2)C(C(=O)NCCCN2CCC(c3ccccc3)(c3ccccc3)CC2)=C(C)N1` (stereo not drawn) (as salt: hydrochloride) [Example 37], the melting point is 252 °C (dec.). The figure for `CCC1=C(C(N)=O)C(c2ccc([N+](=O)[O-])cc2)C(C(=O)NCCCN2CCC(c3ccc(OC)cc3)(c3ccc(OC)cc3)CC2)=C(CC)N1` (stereo not drawn) (as salt: hydrochloride) [Example 103, 5-Carboxamido-2,6-diethyl-1,4-dihydro-3-{N-[3-(4,4-bis-(4-methoxyphenyl)piperidin-1-yl)propyl]}carboxamido}-4-(4-nitrophenyl)pyridine hydrochloride] is 175 °C (dec.).

In the case of `CCC1=C(C(=O)NC2CCN(Cc3ccccc3)CC2)C(c2ccc([N+](=O)[O-])cc2)C(C(=O)OC)=C(C)N1` (stereo not drawn) (as salt: hydrochloride) [Example 75, 2-Ethyl-1,4-dihydro-5-methoxycarbonyl-6-methyl-4-(4-nitro)phenyl-3-(N-(N-phenylmethyl)piperidin-4-yl)carboxamidopyridine hydrochloride], the melting point was 221 to 224 °C (dec.).

On to `CCC1=C(C(N)=O)C(c2ccc([N+](=O)[O-])cc2)C(C(=O)NCCCN2CCC(O)(c3ccccc3)CC2)=C(CC)N1` (stereo not drawn) (as salt: hydrochloride) (hydrate or solvate) [Example 100, 5-Carboxamido-2,6-diethyl-1,4-dihydro-3-{N-(3-(4-hydroxy-4-phenylpiperidin-1-yl)propyl]}carboxamido-4-(4-nitrophenyl)pyridine hydrochloride hydrate], for which the melting point was 165 °C (dec.). Molecule `COc1cc2c(cc1OC)CN(CCCNC(=O)C1=C(C)NC(C)=C(C(N)=O)C1c1ccc([N+](=O)[O-])cc1)CC2` (stereo not drawn) (as salt: hydrochloride) [Example 58, 5-Carboxamido-1,4-dihydro-3-{N-[3-(1,2,3,4-tetrahydro-6,7-dimethoxyisoquinolin-2-yl)propyl]}carboxamido-2,6-dimethyl-4-(4-nitrophenyl)pyridine hydrochloride] showed a melting point of 180 to 181 °C.

In general, melting point refers to the temperature of the solid-liquid transition.

For the origin of these results see US6608086B2, “Dihydropyridines and new uses thereof” (Synaptic Pharmaceutical Corporation, priority 1993, dated 2003).
